Measurements published in patent US20020052377A1, “Method for treating angina” (priority 2000, published 2002).
Values after ≈ are worked out from the molar mass of the structure shown. Read-outs that look alike come from different tables or passages of the source.

Tests used:
[1] = Peak and trough ranolazine plasma concentrations, IR regimens (Example 3); type: in vivo; conditions: human, oral
Experimental: In this Example, the safety and anti-ischemic effects of high plasma ranolazine levels in a large group of angina patients was evaluated and the duration of any effects during steady-state dosing with bid and tid regimens was assessed. In this Example, patients with chronic stable angina pectoris who were responsive to conventional antianginal drugs were treated with 3 ranolazine.2HCl dosing regimens: 267 mg tid, 400 mg bid and 400 mg tid IR Formulations of Example 1. Exercise testing parameters and ranolazine free base concentrations were determined at peak and trough plasma levels.
After each 1 week period, patients returned to the exercise laboratory in the morning, at least 1 hour after a light breakfast, for an ETT. This was designated the trough ETT; the trough ETTs were performed at the same time of day for each patient. After completing the trough ETT, the patient received the next scheduled blinded medication dose from the blister pack used that week. Another ETT was performed 1 hour after the administered dose. This was designated the peak ETT. Blood samples were obtained at trough (approximately 8 hours after dosing) and at peak (1 hour after dosing). Other standard laboratory tests were monitored regularly throughout the study.

[2] = test system: patients with chronic angina, with or without history of heart failure; assay: MARISA exercise duration, patients with or without history of heart failure (HF); type: in vivo, human
Experimental: This Example evaluates the effectiveness of ranolazine (Ran) in human patients with chronic angina and a history of heart failure. The […] (Monotherapy Assessment of Ranolazine In Stable Angina) study randomized patients to Ran (500 mg, 1000 mg and 1500 mg bid) and placebo in a double-blind, 4 period, crossover design study. […] All patients performed a modified Bruce exercise test at the time of trough (morning) and peak (afternoon) drug levels on each treatment.

[3] = test system: patients with angina, with or without diabetes; assay: MARISA exercise duration, diabetic (DM) vs non-DM patients; type: in vivo, human
Experimental: In this Example, ranolazine (Ran) was administered to two sets of human subjects. The first set of subjects were suffering from angina alone while the second set of subjects were suffering from angina and diabetes. The […] (Monotherapy Assessment of Ranolazine in Stable Angina) study randomized patients to Ran (500 mg, 1000 mg and 1500 mg bit) and placebo in a double-blind, 4 period crossover study. All patients performed a modified Bruce exercise test at the time of trough and peak drug levels on each treatment; 42 patients with DM were compared to 133 non-DM patients.

[4] = Solubility of ranolazine in aqueous solutions by pH; type: physicochemical
[5] = test system: patients with stable angina; assay: MARISA exercise testing (modified Bruce protocol), sustained release ranolazine; type: in vivo, human
Experimental: is the first study of sustained release ranolazine (SR) in stable angina. Methods: Patients withdrawn from other anti-anginal drugs with reproducible angina-limited exercise duration and ≧1 mm ST depression were randomized to Ran (500 mg bid, 1000 mg bit and 1500 mg bid) and matching placebo (Pbo) in a double-blind, four-period, Latin square crossover design. Exercise testing with a modified Bruce protocol was performed at both trough (12 hr after dosing) and peak (4 hr after dosing). Results: 49 centers in the USA, Czech Republic, Poland and Canada randomized 191 patients. 168 completed all 4 double-blind treatment periods; 7 more completed 3 of 4 periods.

[6] = Solution pH 7.59 (unbuffered water)

concentration at 1 h ([1]; female, 267 mg, Females, IR 267 mg tid, read-out: Ranolazine Plasma Concentration, Peak, mean (SD)): 1590 ng/mL
concentration at 8 h ([1]; female, 267 mg, Females, IR 267 mg tid, read-out: Ranolazine Plasma Concentration, Trough, mean (SD)): 316 ng/mL
concentration at 1 h ([1]; female, 400 mg, Females, IR 400 mg bid, read-out: Ranolazine Plasma Concentration, Peak, mean (SD)): 2170 ng/mL
concentration at 8 h ([1]; female, 400 mg, Females, IR 400 mg bid, read-out: Ranolazine Plasma Concentration, Trough, mean (SD)): 235 ng/mL
concentration at 1 h ([1]; female, 400 mg, Females, IR 400 mg tid, read-out: Ranolazine Plasma Concentration, Peak, mean (SD)): 2650 ng/mL
concentration at 8 h ([1]; female, 400 mg, Females, IR 400 mg tid, read-out: Ranolazine Plasma Concentration, Trough, mean (SD)): 505 ng/mL
concentration at 1 h ([1]; 267 mg, All Patients, IR 267 mg tid, read-out: Ranolazine Plasma Concentration, Peak, mean (SD)): 1350 ng/mL
concentration at 8 h ([1]; 267 mg, All Patients, IR 267 mg tid, read-out: Ranolazine Plasma Concentration, Trough, mean (SD)): 316 ng/mL
concentration at 1 h ([1]; 400 mg, All Patients, IR 400 mg bid, read-out: Ranolazine Plasma Concentration, Peak, mean (SD)): 1880 ng/mL
concentration at 8 h ([1]; 400 mg, All Patients, IR 400 mg bid, read-out: Ranolazine Plasma Concentration, Trough, mean (SD)): 235 ng/mL
concentration at 1 h ([1]; 400 mg, All Patients, IR 400 mg tid, read-out: Ranolazine Plasma Concentration, Peak, mean (SD)): 2130 ng/mL
concentration at 8 h ([1]; 400 mg, All Patients, IR 400 mg tid, read-out: Ranolazine Plasma Concentration, Trough, mean (SD)): 514 ng/mL
concentration at 8 h ([1]; across the 3 IR dosing regimens, read-out: Mean trough ranolazine plasma concentrations): 235 to 514 ng/mL
concentration at 1 h ([1]; across the 3 IR dosing regimens, read-out: plasma mean peak concentrations, ranolazine free base): 1350 to 2130 ng/mL
concentration at 1 h ([1]; male, 267 mg, Males, IR 267 mg tid, read-out: Ranolazine Plasma Concentration, Peak, mean (SD)): 1260 ng/mL
concentration at 8 h ([1]; male, 267 mg, Males, IR 267 mg tid, read-out: Ranolazine Plasma Concentration, Trough, mean (SD)): 316 ng/mL
concentration at 1 h ([1]; male, 400 mg, Males, IR 400 mg bid, read-out: Ranolazine Plasma Concentration, Peak, mean (SD)): 1760 ng/mL
concentration at 8 h ([1]; male, 400 mg, Males, IR 400 mg bid, read-out: Ranolazine Plasma Concentration, Trough, mean (SD)): 235 ng/mL
concentration at 1 h ([1]; male, 400 mg, Males, IR 400 mg tid, read-out: Ranolazine Plasma Concentration, Peak, mean (SD)): 1920 ng/mL
concentration at 8 h ([1]; male, 400 mg, Males, IR 400 mg tid, read-out: Ranolazine Plasma Concentration, Trough, mean (SD)): 518 ng/mL
USP Solubility Class ([4]; Solution pH 4.81): Freely soluble
USP Solubility Class ([4]; Solution pH 4.89): Soluble
USP Solubility Class ([4]; Solution pH 4.90): Soluble
USP Solubility Class ([4]; Solution pH 5.04): Soluble
USP Solubility Class ([4]; Solution pH 5.35): Sparingly soluble
USP Solubility Class ([4]; Solution pH 5.82): Slightly soluble
USP Solubility Class ([4]; Solution pH 6.46): Slightly soluble
USP Solubility Class ([4]; Solution pH 6.73): Very slightly soluble
USP Solubility Class ([4]; Solution pH 7.08): Very slightly soluble
USP Solubility Class [4, 6]: Very slightly soluble
solubility [4, 6]: 240 µg/mL (≈ 0.561 mM)
USP Solubility Class ([4]; Solution pH 7.73): Very slightly soluble
USP Solubility Class ([4]; Solution pH 12.66): Very slightly soluble
solubility ([4]; aqueous solution, aqueous buffer, Solution pH 4.81): 161000 µg/mL (≈ 377 mM)
solubility ([4]; aqueous solution, aqueous buffer, Solution pH 4.89): 73800 µg/mL (≈ 173 mM)
solubility ([4]; aqueous solution, aqueous buffer, Solution pH 5.04): 49400 µg/mL (≈ 116 mM)
solubility ([4]; aqueous solution, aqueous buffer, Solution pH 5.35): 16700 µg/mL (≈ 39.1 mM)
solubility ([4]; aqueous solution, aqueous buffer, Solution pH 5.82): 5480 µg/mL (≈ 12.8 mM)
solubility ([4]; aqueous solution, aqueous buffer, Solution pH 6.46): 1630 µg/mL (≈ 3.81 mM)
solubility ([4]; aqueous solution, aqueous buffer, Solution pH 6.73): 830 µg/mL (≈ 1.94 mM)
solubility ([4]; aqueous solution, aqueous buffer, Solution pH 7.08): 390 µg/mL (≈ 0.912 mM)
solubility ([4]; aqueous solution, aqueous buffer, Solution pH 7.73): 170 µg/mL (≈ 0.398 mM)
solubility ([4]; aqueous solution, aqueous buffer, Solution pH 12.66): 180 µg/mL (≈ 0.421 mM)
solubility ([4]; aqueous solution, pH 4.9, aqueous buffer, Solution pH 4.90): 76400 µg/mL (≈ 179 mM)
Structure (SMILES): COc1ccccc1OCC(O)CN1CCN(CC(=O)Nc2c(C)cccc2C)CC1 (racemic) [Ranolazine, (±)-N-(2,6-dimethylphenyl)-4-[2-hydroxy-3-(2-methoxyphenoxy)propyl]-1-piperazine-acetamide]
LS mean ED ([2]; HF n=29, 500 mg bid, peak): 518 s
LS mean ED ([2]; HF n=29, 500 mg bid, trough): 512 s
LS mean ED ([2]; HF n=29, 1000 mg bid, peak): 520 s
LS mean ED ([2]; HF n=29, 1000 mg bid, trough): 514 s
LS mean ED ([2]; HF n=29, 1500 mg bid, peak): 545 s
LS mean ED ([2]; HF n=29, 1500 mg bid, trough): 524 s
LS mean ED ([2]; No HF n=146, 500 mg bid, peak): 538 s
LS mean ED ([2]; No HF n=146, 500 mg bid, trough): 539 s
LS mean ED ([2]; No HF n=146, 1000 mg bid, peak): 563 s
LS mean ED ([2]; No HF n=146, 1000 mg bid, trough): 551 s
LS mean ED ([2]; No HF n=146, 1500 mg bid, peak): 564 s
LS mean ED ([2]; No HF n=146, 1500 mg bid, trough): 563 s
Ls mean ED ([3]; DM n = 42, 500 mg bid, peak): 527 s
Ls mean ED ([3]; DM n = 42, 500 mg bid, trough): 520 s
Ls mean ED ([3]; DM n = 42, 1000 mg bid, peak): 550 s
Ls mean ED ([3]; DM n = 42, 1000 mg bid, trough): 526 s
Ls mean ED ([3]; DM n = 42, 1500 mg bid, peak): 547 s
Ls mean ED ([3]; DM n = 42, 1500 mg bid, trough): 530 s
Ls mean ED ([3]; Non-DM n = 133, 500 mg bid, peak): 530 s
Ls mean ED ([3]; Non-DM n = 133, 500 mg bid, trough): 528 s
Ls mean ED ([3]; Non-DM n = 133, 1000 mg bid, peak): 550 s
Ls mean ED ([3]; Non-DM n = 133, 1000 mg bid, trough): 539 s
Ls mean ED ([3]; Non-DM n = 133, 1500 mg bid, peak): 557 s
Ls mean ED ([3]; Non-DM n = 133, 1500 mg bid, trough): 544 s
Time to 1 mm ST Depression ([5]; SR 500 mg bid, peak): 479 s
Time to Angina ([5]; SR 500 mg bid, peak): 452 s
Exercise Duration ([5]; SR 500 mg bid, peak (4 hr after dosing)): 532 s
Time to 1 mm ST Depression ([5]; SR 500 mg bid, trough): 470 s
Time to Angina ([5]; SR 500 mg bid, trough): 437 s
Exercise Duration ([5]; SR 500 mg bid, trough (12 hr after dosing)): 533 s
Time to 1 mm ST Depression ([5]; SR 1000 mg bid, peak): 502 s
Time to Angina ([5]; SR 1000 mg bid, peak): 474 s
Exercise Duration ([5]; SR 1000 mg bid, peak (4 hr after dosing)): 555 s
Time to 1 mm ST Depression ([5]; SR 1000 mg bid, trough): 491 s
Time to Angina ([5]; SR 1000 mg bid, trough): 457 s
Exercise Duration ([5]; SR 1000 mg bid, trough (12 hr after dosing)): 545 s
Time to 1 mm ST Depression ([5]; SR 1500 mg bid, peak): 508 s
Time to Angina ([5]; SR 1500 mg bid, peak): 487 s
Exercise Duration ([5]; SR 1500 mg bid, peak (4 hr after dosing)): 561 s
Time to 1 mm ST Depression ([5]; SR 1500 mg bid, trough): 514 s
Time to Angina ([5]; SR 1500 mg bid, trough): 472 s
Exercise Duration ([5]; SR 1500 mg bid, trough (12 hr after dosing)): 559 s
